Source: PubChem BioAssay (NCI)
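Growth conditions: 96-well plates. Treatment: test compound, 48 hours, 5 concentrations. Analysis: linear interpolation between bracketing concentrations; unreached endpoints set to highest concentration. The concentration for 50% growth inhibition is given as GI50. TGI is the concentration that stops growth completely.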

Assays:
Test in all cases: NCI anticancer screen, dose series, 48 h
786-0 renal = tested on: 786-0 renal
A498 renal = tested on: A498 renal
A549 NSCLC = tested on: A549 NSCLC
ACHN renal = tested on: ACHN renal
BT-549 breast = tested on: BT-549 breast
CAKI-1 renal = tested on: CAKI-1 renal
CCRF-CEM leukemia = tested on: CCRF-CEM leukemia
COLO 205 colon = tested on: COLO 205 colon
DU-145 prostate = tested on: DU-145 prostate
EKVX NSCLC = tested on: EKVX NSCLC
HCC-2998 colon = tested on: HCC-2998 colon
HCT-116 colon = tested on: HCT-116 colon
HCT-15 colon = tested on: HCT-15 colon
HL-60(TB) leukemia = tested on: HL-60(TB) leukemia
HOP-62 NSCLC = tested on: HOP-62 NSCLC
HOP-92 NSCLC = tested on: HOP-92 NSCLC
HS 578T breast = tested on: HS 578T breast
HT29 colon = tested on: HT29 colon
IGROV1 ovarian = tested on: IGROV1 ovarian
K-562 leukemia = tested on: K-562 leukemia
KM12 colon = tested on: KM12 colon
LOX IMVI melanoma = tested on: LOX IMVI melanoma
M14 melanoma = tested on: M14 melanoma
MALME-3M melanoma = tested on: MALME-3M melanoma
MCF7 breast = tested on: MCF7 breast
MDA-MB-231 breast = tested on: MDA-MB-231 breast
MDA-MB-435 = tested on: MDA-MB-435
MOLT-4 leukemia = tested on: MOLT-4 leukemia
NCI-H226 lung = tested on: NCI-H226 lung
NCI-H23 lung = tested on: NCI-H23 lung
NCI-H460 lung = tested on: NCI-H460 lung
NCI-H522 lung = tested on: NCI-H522 lung
NCI/ADR-RES ovarian = tested on: NCI/ADR-RES ovarian
OVCAR-3 ovarian = tested on: OVCAR-3 ovarian
OVCAR-4 ovarian = tested on: OVCAR-4 ovarian
OVCAR-5 ovarian = tested on: OVCAR-5 ovarian
OVCAR-8 ovarian = tested on: OVCAR-8 ovarian
PC-3 prostate = tested on: PC-3 prostate
RPMI-8226 leukemia = tested on: RPMI-8226 leukemia
RXF 393 renal = tested on: RXF 393 renal
SF-268 CNS = tested on: SF-268 CNS
SF-295 CNS = tested on: SF-295 CNS
SF-539 CNS = tested on: SF-539 CNS
SK-MEL-2 melanoma = tested on: SK-MEL-2 melanoma
SK-MEL-28 melanoma = tested on: SK-MEL-28 melanoma
SK-MEL-5 melanoma = tested on: SK-MEL-5 melanoma
SK-OV-3 ovarian = tested on: SK-OV-3 ovarian
SN12C renal = tested on: SN12C renal
SNB-19 CNS = tested on: SNB-19 CNS
SNB-75 CNS = tested on: SNB-75 CNS
SR leukemia = tested on: SR leukemia
SW-620 colon = tested on: SW-620 colon
T-47D breast = tested on: T-47D breast
TK-10 renal = tested on: TK-10 renal
U251 CNS = tested on: U251 CNS
UACC-257 melanoma = tested on: UACC-257 melanoma
UACC-62 melanoma = tested on: UACC-62 melanoma
UO-31 renal = tested on: UO-31 renal

Cc1cn(-c2cc(NC(=O)c3cncc(C#Cc4cnc5ccc(O[C@@H]6CCOC6)nn45)c3)cc(C(F)(F)F)c2)cn1
GI50 (786-0 renal): 286 nM | TGI (786-0 renal): 936 nM | GI50 (A498 renal): 504 nM | TGI (A498 renal): 1090 nM | GI50 (A549 NSCLC): 206 nM | TGI (A549 NSCLC): 958 nM | GI50 (ACHN renal): 689 nM | TGI (ACHN renal): 2770 nM | GI50 (BT-549 breast): 625 nM | TGI (BT-549 breast): 1730 nM | GI50 (CAKI-1 renal): 495 nM | TGI (CAKI-1 renal): 1510 nM | GI50 (CCRF-CEM leukemia): 48.6 nM | GI50 (COLO 205 colon): 75.7 nM | TGI (COLO 205 colon): 213 nM | GI50 (DU-145 prostate): 222 nM | TGI (DU-145 prostate): 1580 nM | GI50 (EKVX NSCLC): 257 nM | TGI (EKVX NSCLC): 1270 nM | GI50 (HCC-2998 colon): 320 nM | TGI (HCC-2998 colon): 1500 nM | GI50 (HCT-116 colon): 79.7 nM | TGI (HCT-116 colon): 616 nM | GI50 (HCT-15 colon): 687 nM | TGI (HCT-15 colon): 2370 nM | GI50 (HL-60(TB) leukemia): 181 nM | TGI (HL-60(TB) leukemia): 613 nM | GI50 (HOP-62 NSCLC): 183 nM | TGI (HOP-62 NSCLC): 883 nM | GI50 (HOP-92 NSCLC): 22.8 nM | TGI (HOP-92 NSCLC): 96.3 nM | GI50 (HS 578T breast): 124 nM | TGI (HS 578T breast): 559 nM | GI50 (HT29 colon): 188 nM | TGI (HT29 colon): 947 nM | GI50 (IGROV1 ovarian): 103 nM | TGI (IGROV1 ovarian): 534 nM | TGI (K-562 leukemia): 3250 nM | TGI (KM12 colon): 1790 nM | GI50 (LOX IMVI melanoma): 85.6 nM | TGI (LOX IMVI melanoma): 535 nM | GI50 (M14 melanoma): 138 nM | TGI (M14 melanoma): 353 nM | GI50 (MALME-3M melanoma): 164 nM | TGI (MALME-3M melanoma): 693 nM | GI50 (MCF7 breast): 72.9 nM | TGI (MCF7 breast): 717 nM | GI50 (MDA-MB-231 breast): 74 nM | TGI (MDA-MB-231 breast): 403 nM | GI50 (MDA-MB-435): 144 nM | TGI (MDA-MB-435): 714 nM | GI50 (MOLT-4 leukemia): 64.2 nM | TGI (MOLT-4 leukemia): 678 nM | GI50 (NCI-H226 lung): 56.6 nM | TGI (NCI-H226 lung): 454 nM | GI50 (NCI-H23 lung): 190 nM | TGI (NCI-H23 lung): 784 nM | GI50 (NCI-H460 lung): 144 nM | TGI (NCI-H460 lung): 699 nM | GI50 (NCI-H522 lung): 111 nM | TGI (NCI-H522 lung): 330 nM | GI50 (NCI/ADR-RES ovarian): 6460 nM | TGI (NCI/ADR-RES ovarian): 23100 nM | GI50 (OVCAR-3 ovarian): 217 nM | TGI (OVCAR-3 ovarian): 849 nM | GI50 (OVCAR-4 ovarian): 155 nM | TGI (OVCAR-4 ovarian): 1000 nM | GI50 (OVCAR-5 ovarian): 268 nM | TGI (OVCAR-5 ovarian): 1670 nM | GI50 (OVCAR-8 ovarian): 257 nM | TGI (OVCAR-8 ovarian): 1140 nM | GI50 (PC-3 prostate): 280 nM | TGI (PC-3 prostate): 4210 nM | GI50 (RPMI-8226 leukemia): 397 nM | GI50 (RXF 393 renal): 215 nM | TGI (RXF 393 renal): 535 nM | GI50 (SF-268 CNS): 191 nM | TGI (SF-268 CNS): 1030 nM | GI50 (SF-295 CNS): 355 nM | TGI (SF-295 CNS): 2410 nM | GI50 (SF-539 CNS): 39.8 nM | TGI (SF-539 CNS): 231 nM | GI50 (SK-MEL-2 melanoma): 210 nM | TGI (SK-MEL-2 melanoma): 512 nM | GI50 (SK-MEL-28 melanoma): 312 nM | TGI (SK-MEL-28 melanoma): 1090 nM | GI50 (SK-MEL-5 melanoma): 615 nM | TGI (SK-MEL-5 melanoma): 1710 nM | GI50 (SK-OV-3 ovarian): 392 nM | TGI (SK-OV-3 ovarian): 2230 nM | GI50 (SN12C renal): 85.6 nM | TGI (SN12C renal): 601 nM | GI50 (SNB-19 CNS): 261 nM | TGI (SNB-19 CNS): 1750 nM | GI50 (SNB-75 CNS): < 43.6 nM | TGI (SNB-75 CNS): 226 nM | GI50 (SR leukemia): 52.7 nM | TGI (SR leukemia): 936 nM | GI50 (SW-620 colon): 157 nM | TGI (SW-620 colon): 557 nM | GI50 (T-47D breast): 442 nM | TGI (T-47D breast): 4260 nM | GI50 (TK-10 renal): 362 nM | TGI (TK-10 renal): 1560 nM | GI50 (U251 CNS): 246 nM | TGI (U251 CNS): 1020 nM | GI50 (UACC-257 melanoma): 467 nM | TGI (UACC-257 melanoma): 2750 nM | GI50 (UACC-62 melanoma): 204 nM | TGI (UACC-62 melanoma): 949 nM | GI50 (UO-31 renal): 1450 nM | TGI (UO-31 renal): 3550 nM
